Key:
PMM2 = PMM2 enzyme activity in PMM2-CDG patient-derived fibroblasts; format: cell-based, human; details: 50 nM, 24 hours; four PMM2-CDG patient-derived fibroblast lines; vs DMSO-treated mutant cell line
Protocol: Cells were seeded in a 96-well plate, homogenization buffer (20 mM HEPES, 25 mM KCl, 1 mM DTT, 10 μg/ml leupeptin, 10 μg/ml antipain) was added and plates were freeze-thawed at —80° C. twice to lyse cells. Reaction buffer (50 mM HEPES, 5 mM MgCl2, 0.5 mM NADP+, 10 μg/ml yeast glucose-6-phosphate dehydrogenase, 10 μM glucose-1,6-bisphosphate, 10 μg/ml phosphoglucoisomerase, 5.25 μg/ml phosphomannoseisomerase) containing 200 μM mannose-1-phosphate as substrate was then added to the wells of each plate. Plates were incubated at 37° C. for 270 min and absorbance was read at 340 nm at 30, 60, 90, 120, 150, 180, 210, 240 and 270 min by removing the plate from incubation at the respective time points. All incubations were carried out with or without substrate (mannose-1-phosphate) and the difference between the two values was calculated as the enzymatic activity. Enzyme activity was normalized to total lysate protein levels. Enzyme activities of fibroblasts in the absence of an AR inhibitor were determined. […] Following this, enzyme activity was assessed as described above. […] For ease of analysis, the enzyme activity (as represented by NADPH concentration) of each treatment condition was compared with the activity of a baseline, untreated mutant cell line at the last time point.

[1] = CNS penetration (statement)

For `O=C(O)Cc1nn(Cc2nc3cc(C(F)(F)F)ccc3s2)c(=O)c2cscc12` [Compound B], the “PMM2 enzyme activity in patient-derived fibroblast cell lines” value (PMM2) was “increased PMM2 enzyme activity in each of the four patient-derived cell lines tested” and the CNS penetration [1] was “CNS penetrant”.
